We go through 17 compounds from ChEMBL document CHEMBL1138677, “Design, synthesis, and biological evaluation of new cyclic disulfide decapeptides that inhibit the binding of AP-1 to DNA” (J Med Chem, 2004).

One may read the inhibition as the relative decrease from the control value, in per cent. The term IC50 denotes the midpoint of a concentration-inhibition curve. High values mean lower potency, low ones higher potency.

Each structure is given as a SMILES string. Residues, ends and D or L forms follow the SMILES beside them. Bounds are passed on as bounds.

For assay [1], the target named is Transcription factor AP1 (Homo sapiens) (UniProt P05412+P01100). Kind of assay: Percent inhibition of transcription activator protein-1 (AP-1) in DNA binding assay at 100 uM. In kind it is protein-complex assay.
In assay [2] the target is Transcription factor AP1 (Homo sapiens, UniProt P01100+P05412). Kind of assay: Inhibitory activity against transcription activator protein-1 (AP-1). In kind it is protein-complex assay.
Chain of Transcription factor AP1 (P05412 whole entry): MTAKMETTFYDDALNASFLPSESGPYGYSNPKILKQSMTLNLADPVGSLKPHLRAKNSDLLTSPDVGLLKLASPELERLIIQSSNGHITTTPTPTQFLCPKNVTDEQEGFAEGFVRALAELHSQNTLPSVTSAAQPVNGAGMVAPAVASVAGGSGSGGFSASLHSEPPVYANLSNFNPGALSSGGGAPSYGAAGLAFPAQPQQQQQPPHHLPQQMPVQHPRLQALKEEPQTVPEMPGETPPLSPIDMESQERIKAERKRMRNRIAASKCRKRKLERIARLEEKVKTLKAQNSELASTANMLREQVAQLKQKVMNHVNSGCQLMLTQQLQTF
Chain of Transcription factor AP1 (P01100 whole entry): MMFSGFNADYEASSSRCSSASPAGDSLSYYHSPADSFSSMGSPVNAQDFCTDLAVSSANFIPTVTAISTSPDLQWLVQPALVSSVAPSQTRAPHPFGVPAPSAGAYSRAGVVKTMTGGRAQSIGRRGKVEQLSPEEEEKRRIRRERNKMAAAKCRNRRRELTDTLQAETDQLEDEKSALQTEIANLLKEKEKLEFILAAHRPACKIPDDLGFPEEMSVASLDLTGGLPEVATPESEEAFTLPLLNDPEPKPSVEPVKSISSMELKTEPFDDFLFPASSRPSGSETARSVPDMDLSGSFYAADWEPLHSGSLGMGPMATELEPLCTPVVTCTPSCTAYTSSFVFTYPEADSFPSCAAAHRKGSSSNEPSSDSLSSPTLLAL

Take `CC(C)C[C@H](NC(=O)[C@H](CC(=O)O)NC(=O)[C@H](CC(C)C)NC(=O)[C@H](CCC(N)=O)NC(=O)CN)C(=O)N[C@@H](C)C(=O)N[C@@H](CC(=O)O)C(=O)NCC(=O)O` (H-GQLDLADG-OH): the inhibition in assay [1] was 81%. Further, the IC50 in assay [2] came to 8 µM. On to `CC(C)C[C@H](NC(=O)[C@H](CC(=O)O)NC(=O)[C@H](CC(C)C)NC(=O)[C@H](CC(N)=O)NC(=O)CN)C(=O)N[C@@H](C)C(=O)N[C@@H](CC(=O)O)C(=O)NCC(=O)O` (H-GNLDLADG-OH), for which the inhibition in assay [1] was 42%. This compound had a half-inhibitory concentration (IC50) in assay [2] greater than 100 µM.

`CC(C)C[C@H](NC(=O)[C@H](CC(=O)O)NC(=O)[C@H](CC(C)C)NC(=O)[C@H](CCC(N)=O)NC(=O)CN)C(=O)N[C@@H](C)C(=O)N[C@@H](CC(=O)O)C(=O)O` (H-GQLDLAD-OH): in assay [1], the inhibition came out at 11%. The same compound yielded an IC50 in assay [2] greater than 100 µM. For `CC(C)C[C@H](NC(=O)[C@H](C)NC(=O)CN)C(=O)N[C@@H](CC(=O)O)C(=O)N[C@@H](CC(C)C)C(=O)N[C@@H](C)C(=O)N[C@@H](CC(=O)O)C(=O)NCC(=O)O` (H-GALDLADG-OH), the inhibition in assay [1] stood at 29%. The same compound registered an IC50 in assay [2] greater than 100 µM. For `CC(C)C[C@H](NC(=O)[C@H](CCC(N)=O)NC(=O)CN)C(=O)N[C@@H](CC(=O)O)C(=O)N[C@@H](CC1CCCCC1)C(=O)N[C@@H](C)C(=O)N[C@@H](CC(=O)O)C(=O)NCC(=O)O` (HELM PEPTIDE1{G.Q.L.D.[Cha].A.D.G}$$$$V2.0), in assay [1], the inhibition is 10%. For the same compound, the IC50 in assay [2] is greater than 100 µM. The matching figures for `CC(C)C[C@H](NC(=O)[C@H](CC(=O)O)NC(=O)[C@H](CC(C)C)NC(=O)[C@H](CCC(N)=O)NC(=O)CN)C(=O)N[C@@H](C)C(=O)N[C@@H](CC(N)=O)C(=O)NCC(=O)O` (H-GQLDLANG-OH): 64% and 52 µM. As to `CC(C)C[C@H](NC(=O)[C@H](CC(=O)O)NC(=O)[C@H](CC(C)C)NC(=O)[C@H](CCC(N)=O)NC(=O)CN)C(=O)N[C@@H](C)C(=O)N[C@@H](C)C(=O)NCC(=O)O` (H-GQLDLAAG-OH), the inhibition in assay [1] worked out at 14%. The compound also gave an IC50 in assay [2] greater than 100 µM. For the compound `CC(C)C[C@H](NC(=O)[C@H](CC(=O)O)NC(=O)[C@H](CC1CCCCC1)NC(=O)[C@H](CCC(N)=O)NC(=O)CN)C(=O)N[C@@H](C)C(=O)N[C@@H](CC(=O)O)C(=O)NCC(=O)O` (HELM PEPTIDE1{G.Q.[Cha].D.L.A.D.G}$$$$V2.0), the IC50 in assay [2] is greater than 100 µM. For `CC(C)C[C@H](NC(=O)[C@H](CC(=O)O)NC(=O)[C@H](CC(C)C)NC(=O)[C@H](CCC(=O)O)NC(=O)CN)C(=O)N[C@@H](C)C(=O)N[C@@H](CC(=O)O)C(=O)NCC(=O)O` (H-GELDLADG-OH), in assay [1], the inhibition was -2%. For the same compound, the IC50 in assay [2] is greater than 200 µM. The matching figures for `CC(C)C[C@H](NC(=O)[C@H](CC(=O)O)NC(=O)[C@H](CC(C)C)NC(=O)[C@H](CCC(N)=O)NC(=O)CN)C(=O)NCC(=O)N[C@@H](CC(=O)O)C(=O)NCC(=O)O` (H-GQLDLGDG-OH): 1% and greater than 200 µM. Taken in the same sequence, the figures for `CC(C)C[C@H](NC(=O)[C@H](CC(=O)O)NC(=O)[C@H](CC(C)C)NC(=O)[C@H](CCC(N)=O)NC(=O)CN)C(=O)N[C@@H](C)C(=O)N[C@@H](CC(=O)O)C(=O)N[C@@H](C)C(=O)O` (H-GQLDLADA-OH) were 15% and greater than 100 µM.

Take `CC(C)C[C@H](NC(=O)[C@H](C)NC(=O)[C@H](CC(C)C)NC(=O)[C@H](CCC(N)=O)NC(=O)CN)C(=O)N[C@@H](C)C(=O)N[C@@H](CC(=O)O)C(=O)NCC(=O)O` (H-GQLALADG-OH): in assay [1], the inhibition was -1%. Moreover, the IC50 in assay [2] is greater than 200 µM. In the case of `CC(C)C[C@H](NC(=O)[C@H](CCC(N)=O)NC(=O)CN)C(=O)N[C@@H](CC(=O)O)C(=O)N[C@@H](C)C(=O)N[C@@H](C)C(=O)N[C@@H](CC(=O)O)C(=O)NCC(=O)O` (H-GQLDAADG-OH), the inhibition in assay [1] turned out to be 7%. This compound yielded an IC50 in assay [2] greater than 100 µM. Taken in the same sequence, the figures for `CC(C)C[C@H](NC(=O)[C@H](CC(=O)O)NC(=O)[C@H](CC(C)C)NC(=O)[C@H](CCC(N)=O)NC(=O)[C@H](C)N)C(=O)N[C@@H](C)C(=O)N[C@@H](CC(=O)O)C(=O)NCC(=O)O` (H-AQLDLADG-OH) were 5% and greater than 100 µM. For `CC(C)C[C@H](NC(=O)[C@H](CC(=O)O)NC(=O)[C@H](CC(C)C)NC(=O)[C@@H](N)CCC(N)=O)C(=O)N[C@@H](C)C(=O)N[C@@H](CC(=O)O)C(=O)NCC(=O)O` (H-QLDLADG-OH), the inhibition in assay [1] was -2%. Also, the IC50 in assay [2] was greater than 100 µM. For the compound `CC(C)C[C@H](NC(=O)[C@H](CC(=O)O)NC(=O)[C@H](CC(C)C)NC(=O)[C@H](CCCCN)NC(=O)CN)C(=O)N[C@@H](C)C(=O)N[C@@H](CC(=O)O)C(=O)NCC(=O)O` (H-GKLDLADG-OH), the inhibition in assay [1] is -2%. The same compound came in with an IC50 in assay [2] greater than 200 µM. The matching figures for `CC(C)C[C@H](NC(=O)[C@H](CC(=O)O)NC(=O)[C@H](C)NC(=O)[C@H](CCC(N)=O)NC(=O)CN)C(=O)N[C@@H](C)C(=O)N[C@@H](CC(=O)O)C(=O)NCC(=O)O` (H-GQADLADG-OH): 11% and greater than 100 µM.
